Consider 33 molecules from paper PMC6792352, “Limited Chemical Structural Diversity Found to Modulate Thyroid Hormone Receptor in the Tox21 Chemical Library” (Environmental Health Perspectives, 2019).

The structures appear in SMILES notation. Structures can show the parent of a compound that is named as a salt. Where two headings read alike, the source gives them in different places.

One data set is described as follows: in vitro. Particulars: rat, gh3-tre-luc cells, AC50 (uM) modified / 1000.
A further data set has as its system GH3-TRE-Luc cell line. The settings on record: read-out: AC50 (uM) modified / 1000, viability, 1 nM T3 present, 24 h.

On to `CCCCCCCCCCCCCCCC[N+](C)(C)Cc1ccccc1` [Benzylhexadecyldimethylammonium chloride], for which the CC50 at 24 h in “in vitro” was 21.5 µM. Further, the CC50 in the data set on GH3-TRE-Luc cell line (Tox21_110001=Tox21_112574) turned out to be 13.4 µM.
`CCCCC(CC)COC(=O)c1ccc(O)cc1` (stereo not drawn) [2-Ethylhexylparaben]: in “in vitro”, the CC50 at 24 h came out at 32.1 µM. Besides, the CC50 with GH3-TRE-Luc cell line (Tox21_110001=Tox21_302793) came out at 41.7 µM.
With `COC(=O)C1=C(C)NC(C)=C(C(=O)OCC(C)C)C1c1ccccc1[N+](=O)[O-]` (stereo not drawn) [Nisoldipine], the CC50 at 24 h in “in vitro” came to 51.4 µM. Also, in the data set on GH3-TRE-Luc cell line (Tox21_110001=Tox21_112251), the CC50 was 37.2 µM.
`CCC(C)(C)c1ccc(O)c(C(C)(C)CC)c1` [2,4-Di-tert-pentylphenol] had a CC50 at 24 h in “in vitro” of 10.5 µM. Further, the CC50 with GH3-TRE-Luc cell line (Tox21_110001=Tox21_300090) came out at 12.2 µM.
Take `O=C1c2ccccc2C(=O)N1SC1CCCCC1` [N-(Cyclohexylthio)phthalimide]: the CC50 at 24 h in the data set “in vitro” was 37 µM. For the same molecule, the CC50 with GH3-TRE-Luc cell line (Tox21_110001=Tox21_303596) worked out at 23.2 µM.
As to `Cc1cc(Cc2cc(C)cc(C(C)(C)C)c2O)c(O)c(C(C)(C)C)c1` [2,2'-Methylenebis(4-methyl-6-tert-butylphenol)], the CC50 at 24 h in “in vitro” came to 11.5 µM. The CC50 with GH3-TRE-Luc cell line (Tox21_110001=Tox21_302923) was found to be 10.1 µM.
In “in vitro”, `N=c1ccn2c(n1)O[C@H]1[C@H](O)[C@@H](CO)O[C@H]12` [Cyclocytidine] had a CC50 at 24 h of 1.45 µM. Moreover, the CC50 in the data set with GH3-TRE-Luc cell line (Tox21_110001=Tox21_111571) was determined as 1.18 µM.
As for `CCCN(CCOc1c(Cl)cc(Cl)cc1Cl)C(=O)n1ccnc1` [Prochloraz], the CC50 at 24 h in the data set “in vitro” came to 81.4 µM. Besides, in the data set on GH3-TRE-Luc cell line (Tox21_110001=Tox21_301179), the CC50 turned out to be 70.8 µM.
In turn, `O=C(Nc1ccc([N+](=O)[O-])cc1Cl)c1cc(Cl)ccc1O` [Niclosamide] gave a CC50 at 24 h in “in vitro” of 0.487 µM. For the same molecule, in the data set with GH3-TRE-Luc cell line (Tox21_110001=Tox21_110209), the CC50 stood at 0.618 µM.
Take `CCCCCCCCCCCCCCCC[N+](C)(C)CC` [Ethylhexadecyldimethylammonium bromide]: the CC50 at 24 h in “in vitro” was determined as 11.9 µM. The CC50 with GH3-TRE-Luc cell line (Tox21_110001=Tox21_112326) is 6.28 µM.
`O=C1c2ccccc2C(=O)N1SC(Cl)(Cl)Cl` [Folpet] returned a CC50 at 24 h in “in vitro” of 4.47 µM. Besides, the CC50 in the data set on GH3-TRE-Luc cell line (Tox21_110001=Tox21_301077) is 2.3 µM.
With `Cc1ccc(C(C)(C)C)c(O)c1` [2-tert-Butyl-5-methylphenol], the CC50 at 24 h in “in vitro” stood at 81 µM. The CC50 in the data set with GH3-TRE-Luc cell line (Tox21_110001=Tox21_300486) worked out at 47.9 µM.
In turn, `Oc1c(I)cc(Cl)c2cccnc12` [Clioquinol] had a CC50 at 24 h in “in vitro” of 43.1 µM. For the same molecule, the CC50 in the data set with GH3-TRE-Luc cell line (Tox21_110001=Tox21_110416) is 43.7 µM.
In the case of `CCN(CC)C(=O)c1cc(S(=O)(=O)Cc2ccccc2)c(N2CCC(c3ccccc3)CC2)cc1N(CC)CCN(C)C` [HMR1171 trifluoroacetate (1:1)], the CC50 at 24 h in the data set “in vitro” was 4.78 µM. The CC50 in the data set on GH3-TRE-Luc cell line (Tox21_110001=Tox21_113204) is 3.38 µM.
On to `CC(CCc1ccccc1)NCC(O)c1ccc(O)c(C(N)=O)c1` (stereo not drawn) [Labetalol hydrochloride], for which the CC50 at 24 h in the data set “in vitro” was determined as 14.1 µM. For the same molecule, in the data set with GH3-TRE-Luc cell line (Tox21_110001=Tox21_302725), the CC50 came out at 24.7 µM.
The molecule `O=P(OC(CCl)CCl)(OC(CCl)CCl)OC(CCl)CCl` [Tris(1,3-dichloro-2-propyl) phosphate] yielded a CC50 at 24 h in the data set “in vitro” of 61.2 µM. For the same molecule, the CC50 with GH3-TRE-Luc cell line (Tox21_110001=Tox21_300194) came out at 36.6 µM.
In the case of `CCNc1nc(NC(C)(C)C)nc(SC)n1` [Terbutryn], in “in vitro”, the CC50 at 24 h was more than 90 µM. Besides, in the data set on GH3-TRE-Luc cell line (Tox21_110001=Tox21_303141), the CC50 was determined as 74.8 µM.
In turn, `CCCCN(CC)c1c([N+](=O)[O-])cc(C(F)(F)F)cc1[N+](=O)[O-]` [Benfluralin] came in with a CC50 at 24 h in the data set “in vitro” of more than 90 µM. The CC50 in the data set on GH3-TRE-Luc cell line (Tox21_110001=Tox21_300774) was found to be 46 µM.
Consider `Cc1[nH]cnc1C[C@H]1CCc2c(C)c3ccccc3n2C1=O` [Fabesetron], for which the CC50 at 24 h in the data set “in vitro” is 33.3 µM. For the same molecule, the CC50 with GH3-TRE-Luc cell line (Tox21_110001=Tox21_113200) is 23.5 µM.
In “in vitro”, `O=C(O)C1=NN(c2ccc(S(=O)(=O)O)cc2)C(=O)C1N=Nc1ccc(S(=O)(=O)O)cc1` (stereo not drawn) [FD&C Yellow 5] had a CC50 at 24 h of more than 50 µM. Also, the CC50 with GH3-TRE-Luc cell line (Tox21_110001=Tox21_201539) was 43.1 µM; in the data set on GH3-TRE-Luc cell line (Tox21_110001=Tox21_300554) it was 61.1 µM.
`Cc1c(C(=O)O)c(O)cc2c1C(=O)c1c(O)c([C@@H]3O[C@H](CO)[C@@H](O)[C@H](O)[C@H]3O)c(O)c(O)c1C2=O` [Carminic acid] showed a CC50 at 24 h in “in vitro” of 55.9 µM. The CC50 in the data set on GH3-TRE-Luc cell line (Tox21_110001=Tox21_300294) amounted to 56.2 µM.
In the data set “in vitro”, `O=C1CN(/N=C/c2ccc([N+](=O)[O-])o2)C(=O)N1` [Nitrofurantoin] returned a CC50 at 24 h of 62.5 µM. Also, in the data set on GH3-TRE-Luc cell line (Tox21_110001=Tox21_300602), the CC50 is 70.6 µM.
The molecule `Nc1c(/N=N/c2ccc(-c3ccc(/N=N/c4cc(S(=O)(=O)O)c5ccccc5c4N)cc3)cc2)cc(S(=O)(=O)O)c2ccccc12` [C.I. Direct Red 28] displayed a CC50 at 24 h in the data set “in vitro” of 27 µM. Further, the CC50 in the data set on GH3-TRE-Luc cell line (Tox21_110001=Tox21_111605) turned out to be 16.3 µM.
Regarding `Oc1ccc(Cl)cc1Sc1cc(Cl)ccc1O` [Fenticlor], the CC50 at 24 h in “in vitro” turned out to be 8.49 µM. For the same molecule, the CC50 in the data set with GH3-TRE-Luc cell line (Tox21_110001=Tox21_110031) was 11.6 µM.
On to `CC1=C(/C=C/C(C)=C/C=C/C(C)=C/C(=O)O)C(C)(C)CCC1` [all trans-Retinoic acid], for which the CC50 at 24 h in the data set “in vitro” was determined as 71.8 µM. Also, in the data set with GH3-TRE-Luc cell line (Tox21_110001=Tox21_300305), the CC50 was found to be 77.6 µM.
Turning to `Oc1cccc(-c2c3nc(c(-c4cccc(O)c4)c4ccc([nH]4)c(-c4cccc(O)c4)c4nc(c(-c5cccc(O)c5)c5ccc2[nH]5)CC4)C=C3)c1` [Temoporfin], in “in vitro”, the CC50 at 24 h worked out at 13.6 µM. Also, in the data set on GH3-TRE-Luc cell line (Tox21_110001=Tox21_113297), the CC50 is 11.2 µM.
On to `O=C(Nc1ccc(Cl)cc1)Nc1ccc(Cl)c(Cl)c1` [Triclocarban], for which the CC50 at 24 h in the data set “in vitro” amounted to 6.61 µM. Further, the figures for the CC50 in the data set on GH3-TRE-Luc cell line (Tox21_110001=Tox21_112078) and in the data set on GH3-TRE-Luc cell line (Tox21_110001=Tox21_300481) were 3.75 µM and 3.32 µM, respectively.
In the data set “in vitro”, `COc1cc(-c2ccc(N)c(OC)c2)ccc1N` [3,3'-Dimethoxybenzidine dihydrochloride] came in with a CC50 at 24 h of more than 90 µM. In the data set on GH3-TRE-Luc cell line (Tox21_110001=Tox21_300315), the CC50 amounted to 65 µM.
`CC[C@@]1([C@@H]2O[C@@H]([C@H]3O[C@@](O)(CO)[C@H](C)C[C@@H]3C)C[C@@H]2C)CC[C@H]([C@]2(C)CC[C@]3(C[C@H](O)[C@@H](C)[C@@H]([C@@H](C)[C@@H](OC)[C@H](C)C(=O)O)O3)O2)O1` [Monensin sodium] yielded a CC50 at 24 h in “in vitro” of 0.446 µM. In the data set with GH3-TRE-Luc cell line (Tox21_110001=Tox21_113191), the CC50 was found to be 0.38 µM.
`Nc1ccc(O)cc1` [4-Aminophenol] yielded a CC50 at 24 h in the data set “in vitro” of 16.6 µM. Further, the CC50 was 9.32 µM with GH3-TRE-Luc cell line (Tox21_110001=Tox21_113242) and 17.1 µM with GH3-TRE-Luc cell line (Tox21_110001=Tox21_201030).
In turn, `CN1[C@@H]2CC[C@H]1C[C@@H](OC(c1ccccc1)c1ccccc1)C2` [Benztropine] showed a CC50 at 24 h in the data set “in vitro” of 24.5 µM. Moreover, the CC50 in the data set with GH3-TRE-Luc cell line (Tox21_110001=Tox21_111695) turned out to be 13.8 µM.
In the case of `CC(C)N(C(=O)CCl)c1ccccc1` [Propachlor], the CC50 at 24 h in “in vitro” amounted to 48.7 µM. For the same molecule, the CC50 in the data set with GH3-TRE-Luc cell line (Tox21_110001=Tox21_303036) is 54.1 µM.
In the data set “in vitro”, `C=CCOC(Cn1ccnc1)c1ccc(Cl)cc1Cl` (stereo not drawn) [Imazalil] had a CC50 at 24 h of 53.5 µM. Besides, the CC50 with GH3-TRE-Luc cell line (Tox21_110001=Tox21_300720) is 79.9 µM.
